From patent US7488841B2, “Composition containing acyl group” (Asahi Kasei Chemicals Corporation, priority 2002, dated 2009)

Test: Moisture absorption rate under high humidity and moisture retention under low humidity
Assay type: physicochemical
Conditions: 25° C.; for Moisture absorption rates under low humidity after different elapsed time (%): after 313 hours at high humidity
Procedure: The moisture absorption rate under high humidity and the moisture retention rate under low humidity were evaluated for the composition produced in Example 7 and urea as a contrast. Specifically, 1 g of dried sample was dried in a weighing bottle and weighed precisely, and left stand in a desiccator under relative humidity as high as 84% at 25° C. while measuring the sample weight with time until 313 hours has elapsed. Then, the same sample was transferred into a desiccator under relative humidity as low as 33% at 25° C., and left stand in the desiccator while measuring the sample weight with time in the same manner as above considering the point 313 hours has elapsed as a test starting point (0 hr). The moisture absorption rate was obtained in accordance with the following equation. Moisture absorption rate (%)=(Wt−W0/W0)×100 W0: dry weight before being left stand, Wt: weight at the time of each measuring

deliquescent properties (during the course of moisture absorption, relative humidity 84%): showed its deliquescent properties | moisture retention (left stand under low humidity, relative humidity 33%): released almost all its moisture | Moisture absorption rates under low humidity after different elapsed time (%) (relative humidity 33%, 0 Hr): 72.7% | Moisture absorption rates under low humidity after different elapsed time (%) (relative humidity 33%, 25 Hr): 1.2% | Moisture absorption rates under low humidity after different elapsed time (%) (relative humidity 33%, 49 Hr): 0.3% | Moisture absorption rates under low humidity after different elapsed time (%) (relative humidity 33%, 75 Hr): 0.4% | Moisture absorption rates under low humidity after different elapsed time (%) (relative humidity 33%, 141 Hr): 0.3% | Moisture absorption rates under high humidity after different elapsed time (%) (relative humidity 84%, 5 Hr): 0.2% | Moisture absorption rates under high humidity after different elapsed time (%) (relative humidity 84%, 27 Hr): 3.2% | Moisture absorption rates under high humidity after different elapsed time (%) (relative humidity 84%, 48 Hr): 7.4% | Moisture absorption rates under high humidity after different elapsed time (%) (relative humidity 84%, 120 Hr): 24.7% | Moisture absorption rates under high humidity after different elapsed time (%) (relative humidity 84%, 197 Hr): 42.6% | Moisture absorption rates under high humidity after different elapsed time (%) (relative humidity 84%, 313 Hr): 72.7%
Compound: NC(N)=O [Urea, urea]
